Data taken from PubChem BioAssay AID1918930 (Molecular Pharmacology Branch, DTP, NCI, 2023).

Test system: 233499-124-R-J3-PDC complex spheroid viability, % test/control
Assay: Anticancer human tumor 233499-124-R-J3-PDC patient-derived colon adenocarcinoma cell line growth inhibition
Conditions: for IC50: curve of first compound; for viability, T/C: stronger effect = lower value
Text: Multicellular complex tumor spheroid response to LSD1 Inhibitor Iadademstat in combination with a variety of drugs and investigational agents in selected tumor cell lines
The current study was undertaken to assess response to LSD1 inhibitors in combination with standard-of-care drugs and investigational agents in solid tumor complex spheroid models as well as in the K-562 leukemia. Complex spheroids include a stromal component modeled by human endothelial cells (HUVEC) and fibroblasts modeled by human mesenchymal stem cells (MSCs). The concentration ranges selected for each drug and investigational agent were based upon clinically achievable concentrations if the clinical Cmax of the agent was known.
Compounds. The drugs and investigational agents used in this study are listed on Table 1. All of the agents used, including staurosporine (NSC755774) and gemcitabine (NSC613327), were obtained from the Developmental Therapeutics Program, NCI. FDA-approved anticancer drugs are available from the NCI at http://dtp.nci.nih.gov/branches/dscb/oncology_drugset_explanation.html. Drugs and investigational agents were >95% pure by proton nuclear magnetic resonance (NMR) and liquid chromatography/mass spectrometry (LC/MS). Stock solutions were prepared at 400x in DMSO, stored at -70 degrees C, and diluted in fresh medium prior to their use. The final concentration of DMSO in cell culture wells never exceeded 0.25% (v/v). The FDA-approved anticancer drug set is available from the Developmental Therapeutics Program at https://dtp.cancer.gov/organization/dscb/obtaining/available_plates.htm. All drugs and investigational agents were tested over a range starting from a high concentration at or near the clinical Cmax and decreasing in half-log increments. If the clinical Cmax for an agent had not been determined, the highest concentration tested was 10 microM.
Cell Lines. The patient-derived cancer cell (PDC) lines: 292921-168-R-J2-PDC, K24384-001-R-PDC, and 521955-158-R2-J5-PDC pancreatic carcinomas, 556581-035-R-J1 ovarian carcinoma, 324938-238-R-J1-PDC, 855422-203-R-J1-PDC and 883617-216-R-J1-PDC urothelial bladder carcinomas, 743489-274-T-PDC renal cell carcinoma, 138582-R-J1 Merkel cell tumor, K60290-347-R-J1 and K57222-313-R-J1-PDC glioblastomas, 653999-131-R-J2-PDC, LG0703-F948-PDC, and 349418-098-R-PDC non-small cell lung carcinomas, 885512-296-R-J2-PDC, 171881-019-R-J1-PDC breast carcinomas and 186277-243-T-J2-PDC and 233499-124-R-J2-PDC colon carcinomas were obtained from the NCI Patient-Derived Models Repository (PDMR, https://pdmr.cancer.gov). The established cell lines NCI/ADR-RES (RRID:CVCL_14520 and OVCAR-5 (RRID:CVCL_1628) ovarian carcinomas, 786-O (RRID:CVCL_1051) and A498 (RRID:CVCL_A498) renal cell carcinoma, NCI-H211 (ATCC, cat. CRL-5824; RRID:CVCL_1529), NCI-H196 (ATCC, cat. CRL-5823, RRID:CVCL_1509), SW 1271 (ATCC, cat. CRL-2177, RRID:CVCL_1716) and NCI-H1876 (ATCC, cat. CRL-5902, RRID:CVCL_1503) small cell lung carcinomas, MDA-MB-231 (RRID:CVCL_0062) and MDA-MB-468 (RRID:CVCL_0419)breast carcinomas (10-12). Pooled donor human umbilical vein endothelial cells (HUVEC, Lonza, cat. CC-2519) and human mesenchymal stem cells (hMSC, Lonza, cat. PT-2501) were purchased from Lonza (Walkersville, MD).
Cell Culture. All cells were maintained in an incubator at 37 degrees C and 5% CO2 with 95% humidity. The PDC lines were cultured according to standard operating procedures established by the NCI PDMR (https://pdmr.cancer.gov). Briefly all PDCs were thawed and cultured in Matrigel-coated flasks prepared with a working solution of 1X Ham's F-12 nutrient mix, without supplementation (Invitrogen, Waltham, MA, cat. 11765054), 100 U/mL penicillin-streptomycin (Invitrogen, cat. 15140122), and 2.5% Matrigel (Corning Inc., Corning, NY, cat. 354248) for the first three passages. […]
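Note: spheroids exposed to agents for one week before readout.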

What does the source list for NS(=O)(=O)OCC1CC(n2ccc3c(NC4CCc5ccccc54)ncnc32)CC1O (stereo not given) + NC1CCC(NC2CC2c2ccccc2)CC1?
IC50 (second compound 0.1 µM): 108 nM; IC50 (second compound 0.316 µM): 88.8 nM; IC50 (second compound 1 µM): 47.5 nM; IC50 (second compound 3.16 µM): 49.6 nM; IC50 (second compound 10 µM): 54.1 nM; viability, T/C (second compound 0.1 µM, first compound 0.00949 µM): 106%; viability, T/C (second compound 0.1 µM, first compound 0.03 µM): 95.7%; viability, T/C (second compound 0.1 µM, first compound 0.0949 µM): 55.9%; viability, T/C (second compound 0.1 µM, first compound 0.3 µM): 9.71%; viability, T/C (second compound 0.1 µM, first compound 0.949 µM): 11.5%; viability, T/C (second compound 0.1 µM, first compound 3 µM): 9.68%; viability, T/C (second compound 0.316 µM, first compound 0.00949 µM): 90.8%; viability, T/C (second compound 0.316 µM, first compound 0.03 µM): 70%; viability, T/C (second compound 0.316 µM, first compound 0.0949 µM): 53.4%; viability, T/C (second compound 0.316 µM, first compound 0.3 µM): 9.15%; viability, T/C (second compound 0.316 µM, first compound 0.949 µM): 6.44%; viability, T/C (second compound 0.316 µM, first compound 3 µM): 7.69%; viability, T/C (second compound 1 µM, first compound 0.00949 µM): 90.7%; viability, T/C (second compound 1 µM, first compound 0.03 µM): 55.9%; viability, T/C (second compound 1 µM, first compound 0.0949 µM): 43.2%; viability, T/C (second compound 1 µM, first compound 0.3 µM): 12%; viability, T/C (second compound 1 µM, first compound 0.949 µM): 11.3%; viability, T/C (second compound 1 µM, first compound 3 µM): 6.96%; viability, T/C (second compound 3.16 µM, first compound 0.00949 µM): 102%; viability, T/C (second compound 3.16 µM, first compound 0.03 µM): 62.9%; viability, T/C (second compound 3.16 µM, first compound 0.0949 µM): 34.5%; viability, T/C (second compound 3.16 µM, first compound 0.3 µM): 10.7%; viability, T/C (second compound 3.16 µM, first compound 0.949 µM): 7.04%; viability, T/C (second compound 3.16 µM, first compound 3 µM): 1.91%; viability, T/C (second compound 10 µM, first compound 0.00949 µM): 89.9%; viability, T/C (second compound 10 µM, first compound 0.03 µM): 66.2%; viability, T/C (second compound 10 µM, first compound 0.0949 µM): 33.4%; viability, T/C (second compound 10 µM, first compound 0.3 µM): 19%; viability, T/C (second compound 10 µM, first compound 0.949 µM): 5.43%; viability, T/C (second compound 10 µM, first compound 3 µM): 3.7%

O=C(C=Cn1cnc(-c2cc(C(F)(F)F)cc(C(F)(F)F)c2)n1)NNc1cnccn1 + NC1CCC(NC2CC2c2ccccc2)CC1 was tested. Which IC50 (second compound 0.1 µM) did it give?
Its IC50 is 102 nM.

What about the IC50 (second compound 0.316 µM) of the same molecule?
The IC50 was 144 nM.

And the IC50 (second compound 1 µM)?
Its IC50 is 84.6 nM.

What about the IC50 (second compound 3.16 µM) of the same molecule?
The IC50 was 130 nM.

What about the IC50 (second compound 10 µM) of the same molecule?
The IC50 was 84.6 nM.

What about the viability, T/C (second compound 0.1 µM, first compound 0.00316 µM) of the same molecule?
The viability, T/C was 106%.

What about the viability, T/C (second compound 0.1 µM, first compound 0.01 µM) of the same molecule?
The viability, T/C was 102%.

And the viability, T/C (second compound 0.1 µM, first compound 0.0316 µM)?
Its viability, T/C is 99.5%.

And the viability, T/C (second compound 0.1 µM, first compound 0.1 µM)?
Its viability, T/C is 49.5%.

What about the viability, T/C (second compound 0.1 µM, first compound 0.316 µM) of the same molecule?
The viability, T/C was 31.1%.

And the viability, T/C (second compound 0.1 µM, first compound 1 µM)?
The viability, T/C was 19.8%.

What about the viability, T/C (second compound 0.316 µM, first compound 0.00316 µM) of the same molecule?
Its viability, T/C is 119%.

What about the viability, T/C (second compound 0.316 µM, first compound 0.01 µM) of the same molecule?
Its viability, T/C is 109%.

What about the viability, T/C (second compound 0.316 µM, first compound 0.0316 µM) of the same molecule?
Its viability, T/C is 97.4%.

And the viability, T/C (second compound 0.316 µM, first compound 0.1 µM)?
The viability, T/C was 59.2%.

And the viability, T/C (second compound 0.316 µM, first compound 0.316 µM)?
Its viability, T/C is 28.2%.

And the viability, T/C (second compound 0.316 µM, first compound 1 µM)?
Its viability, T/C is 11.7%.

What about the viability, T/C (second compound 1 µM, first compound 0.00316 µM) of the same molecule?
The viability, T/C was 115%.

What about the viability, T/C (second compound 1 µM, first compound 0.01 µM) of the same molecule?
Its viability, T/C is 106%.

And the viability, T/C (second compound 1 µM, first compound 0.0316 µM)?
The viability, T/C was 106%.

What about the viability, T/C (second compound 1 µM, first compound 0.1 µM) of the same molecule?
The viability, T/C was 40%.

What about the viability, T/C (second compound 1 µM, first compound 0.316 µM) of the same molecule?
Its viability, T/C is 30.9%.

What about the viability, T/C (second compound 1 µM, first compound 1 µM) of the same molecule?
The viability, T/C was 12%.

What about the viability, T/C (second compound 3.16 µM, first compound 0.00316 µM) of the same molecule?
The viability, T/C was 99.3%.

What about the viability, T/C (second compound 3.16 µM, first compound 0.01 µM) of the same molecule?
The viability, T/C was 90.8%.

And the viability, T/C (second compound 3.16 µM, first compound 0.0316 µM)?
Its viability, T/C is 91.8%.

And the viability, T/C (second compound 3.16 µM, first compound 0.1 µM)?
The viability, T/C was 54.9%.

And the viability, T/C (second compound 3.16 µM, first compound 0.316 µM)?
The viability, T/C was 27.8%.

And the viability, T/C (second compound 3.16 µM, first compound 1 µM)?
The viability, T/C was 14.2%.

And the viability, T/C (second compound 10 µM, first compound 0.00316 µM)?
The viability, T/C was 96.8%.

What about the viability, T/C (second compound 10 µM, first compound 0.01 µM) of the same molecule?
Its viability, T/C is 97.3%.

What about the viability, T/C (second compound 10 µM, first compound 0.0316 µM) of the same molecule?
Its viability, T/C is 87.3%.

What about the viability, T/C (second compound 10 µM, first compound 0.1 µM) of the same molecule?
Its viability, T/C is 43.2%.

What about the viability, T/C (second compound 10 µM, first compound 0.316 µM) of the same molecule?
Its viability, T/C is 22%.

And the viability, T/C (second compound 10 µM, first compound 1 µM)?
The viability, T/C was 15.8%.
